For assay [1], the target named is T1, NtDBR (double bond reductase) (Nicotiana tabacum, UniProt Q9SLN8).
T1 construct: gene DBR; full-length, C-terminal His6-tag
Nature of the assay: steady-state kinetics, NADPH oxidation; substrate inhibition at pH […]. It is filed as biochemical.

In assay [2] the target is T1, NtDBR (double bond reductase). The assay is described as follows: X-ray crystal structure (ternary complex, soak); some reduction in biotransformation. It counts as binding.
Assay [3] has the same target. Nature of the assay: steady-state kinetics, NADPH oxidation; biotransformation with GC. It is filed as biochemical.
Assay [4] shares this target. Nature of the assay: X-ray crystal structure (ternary complex, soak). It is filed as binding.
Assay [5] shares this target. Nature of the assay: steady-state kinetics, NADPH oxidation; rate at pH […]. It counts as biochemical.
Assay [6] has the same target. The assay is described as follows: X-ray crystal structure (binary complex, NADPH soak); steady-state kinetics. It counts as binding.
For assay [7] the target is unchanged. The assay is described as follows: steady-state kinetics, NADPH oxidation; kcat/Km at pH […]. It counts as biochemical.

Consider 8 molecules from publication PMC4990313, “Biocatalytic Asymmetric Alkene Reduction: Crystal Structure and Characterization of a Double Bond Reductase from Nicotiana tabacum” (ACS Catalysis, 2013).

T1 sequence (Q9SLN8 whole entry): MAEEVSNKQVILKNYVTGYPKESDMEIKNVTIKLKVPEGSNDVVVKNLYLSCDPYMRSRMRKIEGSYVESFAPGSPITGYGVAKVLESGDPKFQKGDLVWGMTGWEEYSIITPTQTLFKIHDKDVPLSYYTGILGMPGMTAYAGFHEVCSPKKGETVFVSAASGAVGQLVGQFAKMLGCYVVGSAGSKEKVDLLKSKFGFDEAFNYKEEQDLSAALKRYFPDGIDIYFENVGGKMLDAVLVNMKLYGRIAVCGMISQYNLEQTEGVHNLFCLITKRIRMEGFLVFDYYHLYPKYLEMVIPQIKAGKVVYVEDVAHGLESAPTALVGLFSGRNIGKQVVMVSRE

With `CCC=C(C)C=O` [2a, 2-methylpentenal], in assay [1], the Ki was 2600 ± 600 µM.

On to `COc1cc(C=CC=O)ccc1O` [9a, 4-hydroxy-3-methoxycinnamaldehyde], for which the “X-ray crystal structure (ternary complex, soak); some reduction in biotransforma” value in assay [2] is on record as “have modeled in HMCA because this was the compound soaked into the crystals”.

Regarding `O=[N+]([O-])C1=CCCCC1` [1a, 1-nitrocyclohexene], the “steady-state kinetics, NADPH oxidation; biotransformation with GC” value in assay [3] is “NtDBR shows a high preference for 1-nitrocyclohexene (1a) over typical LTD alkenal/one substrates”.

In the case of `NC(=O)c1ccc[n+]([C@@H]2O[C@H](COP(=O)(O)OP(=O)(O)OC[C@H]3O[C@@H](n4cnc5c(N)ncnc54)[C@H](OP(=O)(O)O)[C@@H]3O)[C@@H](O)[C@H]2O)c1` [NADP^+], the “X-ray crystal structure (ternary complex, soak)” value in assay [4] was “showed clear |Fo| – |Fc| electron density for the presence of NADP^+ and a second ligand in subunit A only”.

Take `CCCCCC/C=C/C=O` [4a, trans-2-nonenal]: the “steady-state kinetics, NADPH oxidation; rate at pH 7.3” value in assay [5] amounted to 0.87 ± 0.07 s^–1.

As to `NC(=O)C1=CN([C@@H]2O[C@H](COP(=O)(O)OP(=O)(O)OC[C@H]3O[C@@H](n4cnc5c(N)ncnc54)[C@H](OP(=O)(O)O)[C@@H]3O)[C@@H](O)[C@H]2O)C=CC1` [NADPH], the “X-ray crystal structure (binary complex, NADPH soak); steady-state kinetics” value in assay [6] is “Both the binary and ternary crystal structures showed clear |Fo| – |Fc| electron density for the NADP(H)”.

Regarding `C=CC(=O)CCCCC` [5a, 1-octen-3-one], the “steady-state kinetics, NADPH oxidation; rate at pH 7.3” value in assay [5] turned out to be 0.52 ± 0.03 s^–1.

With `O=C/C=C/c1ccccc1` [6a, trans-cinnamaldehyde], the “steady-state kinetics, NADPH oxidation; kcat/Km at pH 5.4” value in assay [7] came out at 2.8.
